From patent US20230321030A1, “KAEMPFEROL AGLYCONE-CONTAINING EXTRACT” (OTSUKA PHARMACEUTICAL CO., LTD., priority 2020, published 2023)

Tests used:
Type in all cases: in vivo
broccoli sprouts = assay: L-tyrosine or L-phenylalanine addition effect 1, broccoli sprouts; conditions: for kaempferol content: aqueous solution 25-400 mg/L, 10 ml/day for 7 days, dark; for kaempferol content / quercetin content: 21 vol% oxygen; for quercetin content: regardless of the addition
Method: (§1) The amount of kaempferol and quercetin was measured after all of the glycosides of kaempferol and quercetin were hydrolyzed and converted into aglycones. The actual procedure was as follows. After each sample was milled, 2.0 g of the milled product was weighed. After 40 mL of 70% ethanol was added, the sample was suspended with a Polytron homogenizer at room temperature at 20.000 rpm for 1 minute. 1 mL of the suspension was dispensed and weighed into a glass test tube, and 1 mL of 2 N hydrochloric acid was added. After being mixed with a vortex, the mixture was heated at 100° C. for 30 minutes with a heat block. After heating was completed, the resulting product was cooled with ice for at least 5 minutes. After cooling, 5 mL of hexane was added, and the mixture was shaken horizontally 20 times. After centrifugation at 3.000 rpm for 5 minutes at 4° C. with a cooled centrifuge, the upper layer was discarded. 5 mL of ethyl acetate was added, and the mixture was shaken horizontally with a shaker at room temperature at 250 rpm for 10 minutes. After centrifugation with a large cooled centrifuge at 4° C. at 3.000 rpm for 5 minutes, the upper layer was collected in a glass test tube for drying. 5 mL of ethyl acetate was added again to the lower layer, and the mixture was shaken horizontally with a shaker at room temperature at 250 rpm for 10 minutes. After centrifugation at 3.000 rpm at 4° C. for 5 minutes, the upper layer was collected in a glass test tube for drying. The collected upper layer was dried with nitrogen at 60° C. with a nitrogen spray dryer. After drying was complete, 1 mL of an aqueous solution of 70% ethanol was added, and the mixture was treated with an ultrasonic generator for 1 minute to dissolve it with a vortex. After being passed through a 0.45-µm filter, the solution was subjected to HPLC to perform KMP aglycone analysis, thereby determining the amount of KMP aglycones.
(§2) Aqueous solutions containing L-phenylalanine in a concentration of 25, 50, 100, 200, or 400 mg/L, aqueous solutions containing L-tyrosine in a concentration of 25, 50, 100, 200, or 400 mg/L, and aqueous solutions containing both L-tyrosine and L-phenylalanine in a concentration of 25, 50, 100, 200, or 400 mg/L were prepared. As test plants, radish sprouts and broccoli sprouts were prepared. The test plants were given one of the aqueous solutions in an amount of 10 ml/day for 7 days and grown in the dark in an oxygen concentration of 21 vol%. After 7 days, the content of kaempferol and quercetin was measured for each test plant in the same manner as in section B1-2 above. […] Additionally, quercetin was not detected in broccoli sprouts regardless of the addition of L-tyrosine and L-phenylalanine.

radish sprouts [1] = assay: L-tyrosine or L-phenylalanine addition effect 1, radish sprouts; conditions: for effect on the quercetin content / kaempferol content: 21 vol% oxygen; for kaempferol content: aqueous solution 25-400 mg/L, 10 ml/day for 7 days, dark
Method: as §1, §2

radish sprouts [2] = assay: L-tyrosine or L-phenylalanine addition effect 2, radish sprouts at 21 or 17.5 vol% oxygen; conditions: 25 or 50 mg/L, 7 days; for kaempferol content: in every oxygen concentration (21 or 17.5 vol%); for rate of increase in the kaempferol content: low-oxygen concentration (17.5 vol%)
Method: as §1
Aqueous solutions containing L-phenylalanine in a concentration of 25 or 50 mg/L, and aqueous solutions containing L-tyrosine in a concentration of 25 or 50 mg/L were prepared. As a test plant, radish sprouts were prepared. The test plant was given one of the aqueous solution in an amount of 10 ml/day for 7 days and grown in the dark in an oxygen concentration of 21 vol% or 17.5 vol%. After 7 days, the content of kaempferol and quercetin was measured in the same manner as in section B1-2 above.

Compound	kaempferol content (broccoli sprouts)	quercetin content (broccoli sprouts; 7 days)	effect on the quercetin content (radish sprouts [1]; 25-400 mg/L, 7 days)	kaempferol content (radish sprouts [1])	kaempferol content (radish sprouts [2])	rate of increase in the kaempferol content (radish sprouts [2])	effect on plant growth (total length and weight) (broccoli sprouts; 25-400 mg/L, 7 days)	effect on plant growth (total length and weight) (radish sprouts [1]; 25-400 mg/L, 7 days)	effect on plant growth (total length and weight) (radish sprouts [2]; 21 or 17.5 vol% oxygen)
N[C@@H](Cc1ccccc1)C(=O)O [L-phenylalanine]	increased	not detected	no significant effect	increased	increased	significantly increased	–	–	–
N[C@@H](Cc1ccc(O)cc1)C(=O)O [L-tyrosine]	increased	not detected	no significant effect	increased	increased	significantly increased	no clear effect	no clear effect	no clear effect
